Literature values in patent publication US20220347399A1, “SYSTEMS AND METHODS OF USING AN ULTRASONIC FOGGER TO DISTRIBUTE AN ANTISEPTIC SOLUTION” (Wonder Spray, LLC, priority 2021, published 2022).

Assays:
[1] = system: f2 RNA; details: f2 capsid proteins could still adsorb to the host
[2] = system: E. coli; details: 50 mM (2.6 ppm) HOCl, within 5 minutes
[3] = system: E. coli; details: 50 mM (2.6 ppm) HOCl, within 5 minutes; remark: listed apart in the source
[4] = inhalation of vaporized HOCl

OCl [HOCl, Hypochlorous acid]
inactivation of naked f2 RNA versus RNA in intact phage [1]: inactivated naked f2 RNA at the same rate as RNA in intact phage
inhibition of the growth of E. coli [2]: completely inhibited
inhibition of DNA synthesis [3]: ninety-six
adverse effects on inhaling the vaporized form [4]: no adverse effects
